Test results: publication PMC9229927, “New Alk(en)ylhydroxycyclohexanes with Tyrosinase Inhibition Potential from Harpephyllum caffrum Bernh. Gum Exudate” (Molecules, 2022)

What follows are molecules tested against mushroom tyrosinase (Agaricus bisporus, UniProt C7FF04).
Format: biochemical
Procedure: Tyrosinase inhibitory potential of alk(en)ylhydroxycyclohexanes has not been previously reported.
Tyrosinase inhibitory activity was determined spectrophotometrically with slight modifications. Briefly, tested samples were dissolved in DMSO to a final concentration of 20 mg/mL. In a 24-well plate, 30 μL of the samples was added to 970 μL of potassium phosphate buffer (0.1 M, pH 6.5) and serially diluted two-fold. The mixture (70 μL) was transferred to a 96-well plate containing 30 μL of potassium phosphate buffer (0.1 M, pH 6.5) to obtain increasing concentration range of (1.56–200 μg/mL). Then, 30 μL of mushroom tyrosinase solution (333 Units/mL in phosphate buffer, pH 6.5) was added to each mixture, which was then incubated at 25 °C for 5 min. Thereafter, 110 µL of 2 mM L-tyrosine was added in all wells of a 96-well microtiter plate and further incubated for 30 min at 25 °C. […] The absorbance of the mixture was read at 492 nm using an ELISA microplate reader (VarioSkan Flash, Thermo Fisher Scientific, Vantaa, Finland). All experiments were performed in triplicates. The percent inhibition of tyrosinase was calculated as follows: Tyrosinase inhibitory (%)=(Ao−A1/Ao) × 100 where A0 is the absorbance of the negative control with the enzyme without test samples, A1 is the absorbance of the test samples and enzyme.
Data were expressed as mean ± SD from three independent experiments. The IC50 values, corresponding to the concentration required to inhibit 50% of tyrosinase activity, were calculated from a sigmoidal dose–response of a non-linear regression and R-square values representing the best fit of the model were determined by Pearson nonlinear regression using the GraphPad Prism 5 software (GraphPad Software, San Diego, CA, USA). A one-way ANOVA was performed and differences between means were separated using the Tukey multiple comparison test at p < 0.05. Experiments were performed in triplicate.

Chain of mushroom tyrosinase (C7FF04 1-392): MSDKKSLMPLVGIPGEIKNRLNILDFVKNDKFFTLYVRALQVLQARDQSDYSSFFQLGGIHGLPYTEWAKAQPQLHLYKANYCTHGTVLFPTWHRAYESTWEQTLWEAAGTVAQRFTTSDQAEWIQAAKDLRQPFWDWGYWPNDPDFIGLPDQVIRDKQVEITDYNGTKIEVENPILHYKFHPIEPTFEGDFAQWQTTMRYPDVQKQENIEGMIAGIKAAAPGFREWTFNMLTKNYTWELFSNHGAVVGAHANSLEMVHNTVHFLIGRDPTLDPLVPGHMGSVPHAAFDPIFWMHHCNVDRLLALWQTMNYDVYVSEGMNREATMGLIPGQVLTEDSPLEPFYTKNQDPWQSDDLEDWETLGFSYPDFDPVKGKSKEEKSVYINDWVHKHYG

Row | Structure (SMILES) | tyrosinase inhibition, rating in words
1 | CCCC/C=C\CCCCCCCCCCCc1cccc(O)c1 [Compound 1, 3-heptadec-12′-Z-enyl phenol] | moderately active
2 | CCCC/C=C\CCCCCCCCCCCC[C@@]1(O)C[C@@H](O)[C@H](O)[C@@H](O)[C@H]1O [Compound 3, (1S,2S,3S,4S,5R)-1,2,3,4,5-pentahydroxy-5-[octadec-13′(Z)-enyl]cyclohexane] | good inhibition
3 | CCCC/C=C\CCCCCCCCCCC[C@@]1(O)CCC[C@@H](O)C1 [Compound 2, (1R,3R)-1,3-dihydroxy-3-[heptadec-12′(Z)-enyl]cyclohexane] | good inhibition
4 | CCCC/C=C\CCCCCCCCCCC[C@]1(O)CC[C@@H](O)[C@H](O)C1 [Compound 4, (1R,2S,4R)-1,2,4-trihydroxy-4-[heptadec-12′(Z)-enyl]cyclohexane] | moderately active
